The values that follow come from PubChem BioAssay AID1645848.

≈ marks a conversion by molar mass, not a printed value.

What is called kinetic solubility is solubility judged after dilution from a stock solution rather than from solid.

For this series the following is noted: buffer; pH 7.4; 6.0 h; 150.0 µM.

As to `Cc1cn2nc(-c3nc(C4CCCN(C(=O)c5ccccc5)C4)no3)cc2c(=O)[nH]1` (stereo not given), the kinetic solubility amounted to 27.5 µg/mL (≈ 68 µM). In turn, `CCC[C@H](NC(=O)/C(C#N)=C/c1cccc(Br)n1)c1ccccc1` came in with a solubility (kinetic) of less than 1 µg/mL.

In the case of `Cc1ccc(S(=O)(=O)Nc2cnccc2C(=O)Nc2nc(-c3ccccc3Cl)cs2)cc1`, the kinetic solubility was found to be 0.005 µg/mL (≈ 0.0103 µM). Consider `CC(=O)NCCNC[C@@H]1C=C(C)[C@H](Cc2nnc(-c3ccccc3)o2)C[C@H]1C(C)C`, for which the solubility (kinetic) is more than 61 µg/mL. The same measure for `O=C(NCCCNc1nc(Nc2cccc(NC(=O)N3CCCC3)c2)ncc1I)c1cccs1`: 14.2 µg/mL (≈ 24 µM); for `O=C(Nc1ccc(-c2nc3cc(NC(=O)c4ccccc4Cl)ccc3o2)cc1)c1ccccc1Cl`: less than 1 µg/mL; for `FC(F)(F)c1cccc(N2CCN(C(=S)Nc3ccccn3)CC2)c1`: 13.4 µg/mL (≈ 36.5 µM). The same measure for `O=C(NC1CC1)C1CCCN1C(=O)c1cccc(-c2ccccn2)c1` (stereo not given): more than 74 µg/mL; for `CCc1nc2c(sc3nc4c(cc32)COC(C)(C)C4)c(=O)n1Cc1ccco1`: 6.22 µg/mL (≈ 15.7 µM); for `COC(=O)CNC(=O)c1nc(-c2ccc([S+](C)(=O)[O-])cc2)c2ccccn12`: 2.27 µg/mL (≈ 5.87 µM). `Cc1cnc(-c2ccccc2C(C)C)nc1NCc1ccc(-n2ccnn2)cc1` displayed a solubility (kinetic) of 6.61 µg/mL (≈ 17.2 µM). `Brc1ccc(-c2csc(N3CCCCC3)n2)cc1`: the solubility (kinetic) was less than 1 µg/mL. Consider `Cc1ccc(S(=O)(=O)N(C)c2ccccc2C(=O)Nc2nc(-c3ccccc3)cs2)cc1`, for which the solubility (kinetic) is less than 1 µg/mL. `Cc1nn(CCc2nc(-c3ccccc3)cs2)c2[nH]c(=O)cc(C(F)(F)F)c12` gave a solubility (kinetic) of 1.26 µg/mL (≈ 3.12 µM). Take `CCOc1cc(-c2nccc3cc(OC)c(OC)cc23)cc(OCC)c1OCC`: the solubility (kinetic) is 13.8 µg/mL (≈ 34.6 µM).

Take `O=C(O)CCNc1cc(N2CCc3ccccc3CC2)nc(-c2ccccn2)n1`: the solubility (kinetic) was more than 58 µg/mL.

`Fc1ccc(-c2csc3ncnc(NCc4ccc5c(c4)OCO5)c23)cc1`: the solubility (kinetic) was 0.226 µg/mL (≈ 0.596 µM). `O=C1CCCC2=C1C(c1ccccc1Br)N=C(Nc1nc3ccccc3o1)N2` (stereo not given) registered a solubility (kinetic) of less than 1 µg/mL.

In turn, `O=[N+]([O-])c1ccc(/C=N/n2c(CO)nc3ccccc32)s1` gave a kinetic solubility of less than 1 µg/mL.

The compound `CCOC(=O)c1nnc(N[S+](=O)([O-])c2ccc(NC(=O)Cc3ccc(Cl)c(Cl)c3)cc2)s1` showed a kinetic solubility of more than 76 µg/mL.

In turn, `Cc1nc(NC2CCCCC2)c2nc(-c3ccccc3)n(CCN(C)C)c2n1` came in with a solubility (kinetic) of more than 56 µg/mL. As for `O=C1c2ccccc2-n2c1nc1ccccc1c2=O`, the kinetic solubility is 8.45 µg/mL (≈ 34 µM). The same measure for `CC(=O)c1c(C)n(-c2ccccc2)c2ccc(O)cc12`: 1.14 µg/mL (≈ 4.28 µM).

Turning to `Cc1cc(C)nc(NC(=S)N2CCN(c3nccc(C(F)(F)F)n3)CC2)c1`, the solubility (kinetic) is 7.21 µg/mL (≈ 18.2 µM).

Compound `Clc1ccc2ncc(-c3cccc(NC4CNC4)n3)n2c1` gave a solubility (kinetic) of more than 44 µg/mL.

As to `Fc1ccc(Nc2nc(-c3ccccc3)nc3ccccc23)cc1F`, the kinetic solubility was less than 1 µg/mL. As for `CNC(=O)c1cc(Oc2ccc(NC(=O)Nc3cc(C(C)(C)C)nn3-c3ccc4ncccc4c3)c(F)c2)ccn1`, the solubility (kinetic) came out at 3.5 µg/mL (≈ 6.32 µM). For `O=C(Nc1ccc([N+](=O)[O-])cc1Cl)c1cc(Cl)ccc1O`, the kinetic solubility is 1.14 µg/mL (≈ 3.47 µM). Consider `Cc1ccc(NS(=O)(=O)c2cccc(C(=O)O)c2)cc1S(=O)(=O)N1CCOCC1`, for which the solubility (kinetic) is more than 65 µg/mL.

Compound `Cc1ccc2cccc(NC(=O)c3ccc(OC(C)C)cc3)c2n1` gave a kinetic solubility of less than 1 µg/mL. `COc1cccc(CNc2ccc(S(=O)(=O)Nc3nc4ccccc4[nH]3)cc2)c1O` registered a kinetic solubility of 2.59 µg/mL (≈ 6.1 µM). In turn, `O=C(Nc1ncccc1O)c1ccc(S(=O)(=O)Nc2ccccc2)cc1` gave a kinetic solubility of more than 55 µg/mL. Consider `Cc1cccc(-n2cnc3cc(C(=O)N4CCCC(C(F)(F)F)C4)ccc32)c1` (stereo not given), for which the solubility (kinetic) was found to be 45.3 µg/mL (≈ 117 µM). In turn, `CN1Cc2c(ccc3c2OCO3)[C@@H]2[C@H]1c1cc3c(cc1C[C@@H]2O)OCO3` gave a kinetic solubility of more than 52 µg/mL. `O=C(NCc1ccccc1)c1cn2cc(-c3ccccc3)sc2n1` returned a kinetic solubility of less than 1 µg/mL.
